These are literature values, as cited in US20240108740A1, “THERAPEUTIC COMPOSITIONS INCLUDING SPN10 AND USES THEREOF” (Stealth BioTherapeutics Inc., priority 2022, published 2024).

Non-standard residues stand in square brackets, D forms with d.

For one series, the system named is cell stress recovery. The settings on record: Mitchell et al., bioRxiv; cited from earlier work.
Series [1] relates to several mammalian cell types. The settings on record: energy-independent manner; Zhao et al. 2003; cited from earlier work.

Consider “H-F[dR]FK-NH2 [SS-20, reference compound]”, for which the “performance compared with SS-31 (cell culture assays, structure-activity analysis)” value in the series on cell stress recovery was “consistently outperformed SS-31”.
Take “H-D-Arg-Tyr-Lys-Phe-NH2 (H-[dR]YKF-NH2; SMILES N=C(N)NCCC[C@@H](N)C(=O)N[C@@H](Cc1ccc(O)cc1)C(=O)N[C@@H](CCCCN)C(=O)N[C@@H](Cc1ccccc1)C(N)=O) [SPN4, reference compound]”: the “performance compared with SS-31 (cell culture assays, structure-activity analysis)” value in the series on cell stress recovery is “consistently outperformed SS-31”.
Regarding H-2′,6′-Dmt-D-Arg-Phe-Lys-NH2, in series [1], the “penetration of the plasma membrane” value is “readily penetrates the plasma membrane”.
